Assay results published in patent US20120060834A1, “PHARMACEUTICAL PREPARATION TO BE ADMINISTERED INTO RESPIRATORY ORGANS FOR TREATING OR PREVENTING INFLAMMATORY RESPIRATORY DISEASES, AND METHOD FOR TREATING OR PREVENTING SUCH DISEASES” (Postech Academy-Industry Foundation, priority 2009, published 2012).

Key:
[1] = target: T1, FPR (formyl peptide receptor) (Homo sapiens, UniProt P21462); conditions: cited from earlier work
T1 sequence (P21462 1-350): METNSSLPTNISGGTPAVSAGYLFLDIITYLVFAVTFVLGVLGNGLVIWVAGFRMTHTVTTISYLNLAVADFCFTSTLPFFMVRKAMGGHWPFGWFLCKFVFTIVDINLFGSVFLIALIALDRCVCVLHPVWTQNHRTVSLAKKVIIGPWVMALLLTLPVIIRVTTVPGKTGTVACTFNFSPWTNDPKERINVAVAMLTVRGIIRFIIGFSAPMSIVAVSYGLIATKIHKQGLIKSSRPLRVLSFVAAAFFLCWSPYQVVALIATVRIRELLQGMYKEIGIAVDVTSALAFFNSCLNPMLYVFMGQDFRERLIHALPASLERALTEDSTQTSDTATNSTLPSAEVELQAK

[2] = system: asthma animal model exhibiting TH1+TH17 immune responses; assay: Therapeutic efficacy of WKYMVm upon systemic administration by intraperitoneal injection in asthma mouse model; type: in vivo, BALB/c mice
Procedure: This sensitization was performed on Day 0, 1, 2 and 7. […] Meanwhile, the mice of the positive control were intraperitoneally administered with the same dose of phosphate-buffered saline (PBS). For a negative control, the sensitization on Day 0, 1, 2 and 7 and the challenge on Day 14, 15, 21, and 22 were conducted in the same manner as in the positive control, except that PBS was used instead of the allergen. […]
(§1) Pulmonary inflammation was examined 6 hours (Day 22) and 48 hours (Day 24) after the final administration of the allergen. On Days 22 and 24, after mice were anesthetized by intraperitoneally injecting a mixture of ketamine and xylazine thereto, they were subjected to thoracotomy to expose the trachea into which a catheter was then inserted. After suturing the mice, 1 mL of germ-free PBS was infused twice to wash the airway to give bronchoalveolar lavage fluid (hereinafter referred to as “'BAL fluid”). For analyzing T-lymphocytes in lung tissues, the lung was excised and cells were extracted from local lymph nodes.
(§2) Following centrifugation of the BAL fluid at 3000 rpm and at 4° C. for 10 min, the cell pellet thus formed was suspended in PBS, and rolled on slide using a cytospin and stained with Diff
(§3) Quick. More than 300 inflammatory cells were observed under an optical microscope with […] magnification to determine cell counts by cell types, that is, macrophage, lymphocyte, neutrophil, and eosinophil. In the BAL fluid, the cytokines involved in Th1-mediated inflammation, such as gamma interferon, interferon-g-inducible protein 10 (IP-10), and IL-12, the cytokines involved in Th2-mediated inflammation, such as interleukin IL-4 and IL-13, the cytokines involved in Th17-mediated inflammation, such as IL-17, TNF-α and IL-6, and the cytokines involved in Th2- and Th17-mediated inflammation, such as TGF-13, were quantified using ELISA.
(§4) The excised pulmonary tissue was treated with collagenase type IV (Sigma) to separate cells therefrom. The cells were surface stained with anti-CD3, anti-CD4, and anti-CD8 antibodies (BD Pharmingen), all being conjugated with a fluorescent and the membrane was perforated with Triton, followed by intracellular cytokine staining with anti-IFN-γ, anti-IL-17, anti-IL-10 and anti-IL-4 antibodies. Types of the T lymphocytes introduced into the lung were analyzed using the fluorescence activated cell scanner FACSCalibur (Becton Dickinson).
(§5) After the cells extracted from the lymph nodes were incubated for 72 hours in PBS containing 100 μg/ml OVA, gamma interferon, IL-17 and IL-4, which are the cytokines involved in Th1-, Th17- and Th2-mediated inflammation, were quantified using ELISA.

[3] = system: asthma animal model exhibiting TH1+TH17 immune responses; assay: Therapeutic efficacy of WKYMVm upon intranasal administration in asthma mouse model; type: in vivo, BALB/c mice
Procedure: This sensitization was performed on Day 0, 1, 2 and 7. […] Meanwhile, the mice of the positive control were intraperitoneally administered with the same dose of phosphate-buffered saline (PBS). For a negative control, the sensitization on Day 0, 1, 2 and 7 and the challenge on Day 14, 15, 21, and 22 were conducted in the same manner as in the positive control, except that PBS was used instead of the allergen.
Twenty four hours after the final administration of the allergen (Day 23), the mice were examined for bronchial hypersensitivity to methacholine. In this context, the mice were placed in a chamber and allowed to inhale PBS for 3 min with the aid of a nebulizer, followed by measuring penh (enhanced pause) values for 3 min by means of non-invasive whole body plethysmography (Allmedicus, Korea). Likewise, the mice were allowed to inhale 6.25, 12.5, 25 and 50 mg/ml methacholine PBS sequentially, after which penh values for each concentration were measured. A mean of the penh values measured for 3 min was used as an index of airway obstruction.
as §1, §2, §3, §4, §5
The assay was performed in the same manner as in the Comparative Example, except that WKYMVm was administered intranasally instead of intraperitoneally. […] The other procedure was performed in the same manner as in the Comparative Example.

Substance: Trp-Lys-Tyr-Met-Val-D-Met-CONH2 [WKYMVm]
- binding to FPR [1]: known to bind
- inflammatory cell count in BAL fluid ([2]; i.p. 4 mg/kg, Day 22, 6 hours after final allergen, vs sham (positive control), FIG. 2): increase
- release of gamma interferon by inflammatory cells separated from pulmonary tissue ([2]; i.p. 4 mg/kg, Day 22, FIG. 3a): increased
- level of IP-10 in BAL fluid ([2]; i.p. 4 mg/kg, Day 22, FIG. 3b): increased levels
- level of IL-12p40 in BAL fluid ([2]; i.p. 4 mg/kg, Day 22, FIG. 3c): increased levels
- number of IL-17-expressing CD4+ T cells from pulmonary tissues ([2]; i.p. 4 mg/kg, Day 22, FIG. 4a): increase in number
- level of IL-17 released to BAL fluid ([2]; i.p. 4 mg/kg, Day 22, FIG. 4b): increase
- level of IL-6 in BAL fluid ([2]; i.p. 4 mg/kg, Day 22, FIG. 5a): increased levels
- level of TNF-α in BAL fluid ([2]; i.p. 4 mg/kg, Day 22, FIG. 5b): increased levels
- inflammatory cell count in BAL ([2]; i.p. 4 mg/kg, Day 24, 48 hours after final allergen, vs sham, FIG. 6): there was a difference
- level of IL-12p40 (ELISA) ([2]; i.p. 4 mg/kg, Day 24, vs sham, FIG. 7a): no significant differences
- level of TGF-β (ELISA) ([2]; i.p. 4 mg/kg, Day 24, vs sham, FIG. 7b): no significant differences
- pulmonary/respiratory inflammation (overall conclusion) ([2]; systemic (intraperitoneal) administration): did not ameliorate
- suppressive effects on bronchial hypersensitivity and pulmonary inflammation ([3]; direct administration via the nasal cavity compared with systemic administration): higher suppressive effects
- inflammatory cell count of BAL fluid ([3]; intranasal 200 μg/kg, Day 22, 6 hours after allergen, vs sham (positive control), FIG. 8): no differences
- release of gamma interferon by immune cells separated from local lymph nodes (in vitro) ([3]; intranasal 200 μg/kg, Day 22, vs positive control, FIG. 9a): higher level
- gamma interferon-expressing CD4+ T cells from pulmonary tissue (count) ([3]; intranasal 200 μg/kg, Day 22, vs positive control, FIG. 9b): higher
- level of gamma interferon in BAL fluid ([3]; intranasal 200 μg/kg, Day 22, vs positive control, FIG. 9c): reduced
- IL-17 released by local lymph node immune cells stimulated in vitro with allergen ([3]; intranasal 200 μg/kg, Day 22, vs positive control, FIG. 10): higher amount
- IL-17-expressing CD4+ T cells from pulmonary tissues (count) ([3]; intranasal 200 μg/kg, Day 22, vs positive control, FIG. 10b): more numerous
- level of IL-17 in BAL fluid ([3]; intranasal 200 μg/kg, Day 22, vs positive control, FIG. 10c): reduced
- expression of Th2 cytokines in T cells of pulmonary tissues ([3]; intranasal 200 μg/kg, Day 22, vs positive control, FIG. 11a): reduced
- expression level of IL-10 in T cells of pulmonary tissues ([3]; intranasal 200 μg/kg, Day 22, vs positive control, FIG. 11b): increased
- release of IP-10 in BAL fluid ([3]; intranasal 200 μg/kg, Day 22, vs positive control, FIG. 12a): reduced
- release of IL-12p40 in BAL fluid ([3]; intranasal 200 μg/kg, Day 22, vs positive control, FIG. 12b): reduced
- release of TNF-α in BAL fluid ([3]; intranasal 200 μg/kg, Day 22, vs positive control, FIG. 12c): lower levels
- level of MCP-1 in BAL fluid ([3]; intranasal 200 μg/kg, Day 22, vs positive control, FIG. 12e): lower levels
- level of MIP-1a in BAL fluid ([3]; intranasal 200 μg/kg, Day 22, vs positive control, FIG. 12f): lower levels
- release of IL-1β in BAL fluid ([3]; intranasal 200 μg/kg, Day 22, vs positive control, FIG. 12d): lower levels
- release of IL-17 into BAL fluid ([3]; intranasal 200 μg/kg, Day 24, vs positive control, FIG. 15): increased
- release of TGF-β from inflammatory cells (BAL fluid) ([3]; intranasal 200 μg/kg, Day 24, vs positive control, FIG. 15b): significantly reduced
- level of IL-12p40 in BAL fluid ([3]; intranasal 200 μg/kg, Day 24, vs positive control, FIG. 16a): higher levels
- level of IP-10 in BAL fluid ([3]; intranasal 200 μg/kg, Day 24, vs positive control, FIG. 16b): higher levels
